In patent US20210403415A1, “COMPOUNDS AND METHODS TO ATTENUATE TUMOR PROGRESSION AND METASTASIS” (THE TRUSTEES OF INDIANA UNIVERSITY, priority 2018, published 2021):

Experiments:
[1] = tested on: patient-derived GBM43 glioblastoma spheroids; assay: GBM43 spheroid viability (Alamar blue); format: cell-based, human; settings: three-dimensional spheroids
Description: Early-passage GBM43 cells were cultured in ultralow adherence plates (Corning Inc.) at 1 to 2×10^3 cells/mL in DMEM supplemented with 1% […] (Invitrogen), 2% B27 (Invitrogen), 25 ng/mL epidermal growth factor (EGF, 25 ng/mL fibroblast growth factor (FGF) (R&D Systems, Inc.), […], 2 ng/mL platelet growth factor, and 100 ng/mL each of penicillin and streptomycin (Invitrogen Inc.). Individual cells were recovered from spheres by incubation with Accutase (Sigma-Aldrich) for 10-15 minutes. Cells (50-100/well) were then seeded in fresh sphere-forming media in 96-well plates. After 2-3 days, Neurospheres containing 6 to 8 cells were treated with compounds 1, 2, and 5.
HEK-293 were cultured in DMEM with glutamine (Cellgro, Manassas, Va.) supplemented with 10% FBS and 1% penicillin/streptomycin in a 5% CO2 atmosphere at 37° C. Tumors were expanded by passage in the flank of NOD/SCIDγnull mice. To generate GBM43 cell lines, tumors were harvested, disaggregated, and maintained in 2.5% FBS for 14 days on Matrigel-coated plates (BD Biosciences) to remove murine fibroblasts. In-vitro GBM43 cell lines were propagated in DMEM with 10% FBS for no more than 7 passages. Cell line identity was confirmed by DNA fingerprint analysis (IDEXX BioResearch) for species and baseline short-tandem repeat analysis testing. GBM43 spheroids were generated by plating early-passage cells at 2.5×10^4 cells per well in 96-well ultralow attachment plates (Corning Inc.) in DMEM/F12 (1:1; GIBCO) supplemented with 2% B27 supplement (GIBCO), 20 ng/mL epidermal growth factor (EGF), and 20 ng/mL fibroblast growth factor (FGF) (Peprotech) for 2 days. The spheroids were then treated with compounds 1, 2, and 5 and growth analyzed by Alamar blue staining.

TEAD2 = TEAD2 (Homo sapiens, UniProt Q15562); settings: cited from earlier work
TEAD2 binding to Yap1 = target: T1, TEAD2 binding to Yap1 (Homo sapiens, UniProt Q15562); assay: Fluorescence polarization, HIS-TEAD2 with FAM-Yap60-99 peptide; settings: 24 h at 4° C.
T1 construct: TEAD2 (217-447) was expressed as N-terminal HIS-fusion protein; made in house; host or cells: E. coli BL-21 (DE3), pET-28a
Description: (§1) GST-TEAD4, GST-TEAD4 Cys367Ser mutant or HIS-TEAD2 interaction with Yap1 was investigated using a fluorescently-labeled peptide (FAM-Yap60-99), consisting of FAM-labeled TEAD-binding peptide fragment of Yap1 (FAM-[…] TVPMCLRKLPASFCKPP), which has a disulfide bridge (American Peptide, Sunnyvale, Calif.). Addition of FAM-Yap60-99 to the TEAD was followed by measurement of changes in polarization. 40 μL of 125 nM GST-TEAD4 WT or GST-TEAD4 Cys367Ser in assay buffer (PBS with 0.01% v/v Triton-X100) or 40 μL of 64 nM HIS-TEAD2 was added to a 384-well black polystyrene plate (Cat. No. 262260; Nunc, Roskilde, Denmark) and incubated with 5 μL of […] serially diluted compounds in assay buffer supplemented with 20% v/v DMSO for 24 h at 4° C. Finally, 5 μL of 160 nM FAM-Yap60-99 peptide was added, the plate centrifuged, and the polarization was measured on an Envision Multilabel Plate Reader (PerkinElmer, Waltham, Mass.) using a filter set with excitation and emission wavelengths of 485 and 535 nm, respectively. Percent inhibition was calculated as relative to a minimum inhibition control, which is without compound, and a maximum inhibition control, which is without a TEAD.

TEAD4.Yap1 interaction = TEAD4.Yap1 interaction (Homo sapiens, UniProt Q15561); assay: Fluorescence polarization, GST-TEAD4 with FAM-Yap60-99 peptide; format: binding; parameters: TEAD4 (217-434), TEAD4 (217-434) Cys367Ser mutant and Yap1 (Full-length) were expressed as GST-fusion proteins; made in house; host or cells: E. coli BL-21 (DE3), pGEX-6P-1; settings: FP assay, 24 h at 4° C.
Description: as §1
For the determination of the inhibition efficiency kinact/K1, the protein compound incubation time was varied between […], prior to the addition of the FAM-Yap60-99 peptide and fluorescence polarization measurements. The progressive decrease in TEAD activities were plotted against time for all 10 concentrations ([…]) of the compounds and the observed rate of inhibition (kobs) was calculated by fitting a simple exponential function.
The observed rate of inhibition was then plotted against the concentration of the compound and a […] function kobs=kinact[Inhibitor]/K1+[Inhibitor] was fitted to determine the kinact and K1 values.

CTGF transcript levels = assay: qRT-PCR of CTGF transcript in GBM43 cells; format: cell-based, human; settings: FIG. 8C
[2] = target: uPAR.uPA protein-protein interaction (Homo sapiens, UniProt Q03405); assay: Fluorescence polarization, urokinase receptor with peptide AE147; format: binding; settings: 24 h at 4° C.
Description: (§2) The selectivity of the compounds was explored with two unrelated protein-protein interactions between (i) the urokinase receptor (uPAR) and its ligand urokinase (uPA); and (ii) the a subunit of the voltage-gated calcium channel Cav2.2 with its β subunit Cavβ3. […] Both proteins have cysteine residues capable of forming covalent adducts.
(§3) FIG. 4D illustrates BLI measurements of the binding of TEAD4 to captured Yap when biotin-labeled GST-Yap1 was captured onto streptavidin-conjugated biolayer interferometry sensors which were dipped into varying concentrations of TEAD4. (mean±s.d.; n=3). […] FIG. 4F illustrates measured fluorescence polarization when increasing concentration of HIS-TEAD2 was mixed with 16 nM FAM-Yap60-99 peptide (mean±s.d.; n=3). FIG. 4G illustrates measured fluorescence polarization when HIS-TEAD2 was incubated with increasing concentration of compounds for 24 h at 4° C. followed by addition of FAM-Yap60-99 (mean±s.d.; n=3). FIG. 4H illustrates measured fluorescence polarization when urokinase receptor (uPAR) was incubated with varying concentrations of compounds for 24 h at 4° C. followed by addition of a urokinase-derived fluorescently-labeled peptide AE147 (mean±s.d.; n=3). […]

[3] = target: Cav2.2 α·β protein-protein interaction (Homo sapiens, UniProt P54284); assay: Fluorescence polarization, Cavβ3 with labeled α-subunit peptide; format: binding; settings: 24 h at 4° C.
Description: as §2, §3

TEAD4 = TEAD4 (Homo sapiens, UniProt Q15561); assay: Whole protein ESI mass spectrometry, adduct formation; format: binding; parameters: TEAD4 (217-434), TEAD4 (217-434) Cys367Ser mutant and Yap1 (Full-length) were expressed as GST-fusion proteins; GST (N, cleaved yes); made in house; host or cells: E. coli BL-21 (DE3), pGEX-6P-1; settings: 10 μM TEAD4, 200 μM compound, 24 h at 4° C.
Description: The samples were centrifuged at 20,000×g for […] to remove precipitants before being injected into an empty column on an Agilent 1200 liquid chromatography system (Agilent, Santa Clara, Calif.), using 80% Buffer A (H2O, 5 mM NH4OAc) and 20% Buffer B (ACN, 5 mM NH4OAc), and the masses were detected on an Agilent 6520 Accurate Mass Q-TOF.
It was determined whether a covalent bond formed between inventive compounds and TEAD4. […] The covalent adduct formation by compound 2 was relatively fast (FIG. 3G), reaching nearly 100% adduct formation after 30 min incubation with TEAD4. Because the rate of inhibition developed over a longer timescale (FIG. 3C), compound 2 is proposed to induce a slow conformational change in TEAD4 that prevents its interaction with Yap1. To rule out the possibility that compound 2 induces slow aggregation of TEAD4, and not the proposed slow conformational change, GST-TEAD4 was incubated with DMSO compound 2 for 24 h at 4° C., followed by injection into an SEC column (FIG. 3H). […] A slight increase in dimer formation for the TEAD4 sample incubated with compound 2 occurred compared to the sample incubated with DMSO. […] Furthermore, it is highly unlikely that Cys-367 oxidation was responsible for the lack of 100% inhibition at longer times since it has been shown that covalent bond formation is rapid and complete within less than an hour.

T1 sequence (Q15562 217-447): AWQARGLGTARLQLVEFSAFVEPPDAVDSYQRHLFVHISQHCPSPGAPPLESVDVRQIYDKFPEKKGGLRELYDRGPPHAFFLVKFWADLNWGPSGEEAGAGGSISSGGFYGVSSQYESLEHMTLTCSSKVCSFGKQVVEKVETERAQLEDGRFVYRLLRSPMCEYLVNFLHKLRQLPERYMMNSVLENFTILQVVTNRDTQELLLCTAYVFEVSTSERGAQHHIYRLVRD
Chain of TEAD4.Yap1 interaction (Q15561 217-434): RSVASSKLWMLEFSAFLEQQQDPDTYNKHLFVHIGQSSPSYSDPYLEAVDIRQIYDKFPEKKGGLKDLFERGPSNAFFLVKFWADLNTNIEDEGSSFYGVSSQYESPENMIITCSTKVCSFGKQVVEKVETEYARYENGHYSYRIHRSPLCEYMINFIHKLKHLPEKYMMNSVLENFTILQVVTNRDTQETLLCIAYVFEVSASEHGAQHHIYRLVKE
Chain of TEAD2 (Q15562 whole entry): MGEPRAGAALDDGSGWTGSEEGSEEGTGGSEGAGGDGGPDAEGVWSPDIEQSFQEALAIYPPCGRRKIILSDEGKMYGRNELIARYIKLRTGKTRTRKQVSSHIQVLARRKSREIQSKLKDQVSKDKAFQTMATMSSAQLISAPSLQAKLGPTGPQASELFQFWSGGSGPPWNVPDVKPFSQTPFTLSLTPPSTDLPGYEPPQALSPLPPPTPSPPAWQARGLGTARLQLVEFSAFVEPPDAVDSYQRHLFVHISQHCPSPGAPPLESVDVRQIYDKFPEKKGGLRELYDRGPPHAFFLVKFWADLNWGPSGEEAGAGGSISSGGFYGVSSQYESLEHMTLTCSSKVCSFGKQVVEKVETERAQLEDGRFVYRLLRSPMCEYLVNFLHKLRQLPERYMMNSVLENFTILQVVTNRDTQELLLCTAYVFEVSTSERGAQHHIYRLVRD
Chain of TEAD4 (Q15561 217-434): as the sequence (Q15561 217-434) above
Chain of uPAR.uPA protein-protein interaction (Q03405 23-305 limits assumed): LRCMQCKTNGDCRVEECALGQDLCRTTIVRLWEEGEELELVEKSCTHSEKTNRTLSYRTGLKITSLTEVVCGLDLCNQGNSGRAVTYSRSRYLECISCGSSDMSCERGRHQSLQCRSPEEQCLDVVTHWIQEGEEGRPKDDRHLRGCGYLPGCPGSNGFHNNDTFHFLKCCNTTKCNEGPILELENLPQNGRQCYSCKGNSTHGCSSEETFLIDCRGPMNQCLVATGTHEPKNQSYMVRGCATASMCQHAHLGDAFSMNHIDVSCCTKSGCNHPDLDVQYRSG
Chain of Cav2.2 α·β protein-protein interaction (P54284 whole entry): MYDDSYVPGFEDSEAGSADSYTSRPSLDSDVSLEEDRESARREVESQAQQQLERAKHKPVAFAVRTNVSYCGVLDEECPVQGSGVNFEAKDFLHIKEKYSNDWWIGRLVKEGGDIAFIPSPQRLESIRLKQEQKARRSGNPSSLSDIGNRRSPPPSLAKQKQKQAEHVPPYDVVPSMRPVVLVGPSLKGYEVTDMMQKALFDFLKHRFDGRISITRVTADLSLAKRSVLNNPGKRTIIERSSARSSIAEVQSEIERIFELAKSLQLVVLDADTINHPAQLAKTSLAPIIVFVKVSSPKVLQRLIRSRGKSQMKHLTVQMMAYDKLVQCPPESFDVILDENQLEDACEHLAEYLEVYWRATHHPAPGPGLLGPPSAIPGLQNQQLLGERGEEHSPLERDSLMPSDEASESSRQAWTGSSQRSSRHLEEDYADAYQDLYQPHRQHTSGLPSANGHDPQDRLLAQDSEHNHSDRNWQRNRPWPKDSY

Compound	effect on GBM43 cancer cell viability / growth [1]	inhibition of TEAD binding to Yap (TEAD2)	binding to TEAD2 (TEAD2; two sites on TEAD2)	inhibition of TEAD2 binding to Yap1 (TEAD2 binding to Yap1)	inhibition of TEAD4.Yap1 interaction (TEAD4.Yap1 interaction)	CTGF transcript levels versus vehicle (CTGF transcript levels)	inhibition of uPAR.uPA interaction [2]	inhibition of Cav2.2 α·β interaction [3]	covalent adduct formation with TEAD4 (TEAD4)
O=C(O)c1ccccc1Nc1cccc(C(F)(F)F)c1 [Compound 1, 2-((3-(trifluoromethyl)phenyl)amino)benzoic acid, reference compound]	did not affect	did not inhibit	binds weakly	inactive	did not inhibit	no effect	–	–	–
CCC(=O)c1ccccc1Nc1cccc(C(F)(F)F)c1 [Compound 3, 1-(2-((3-(trifluoromethyl)phenyl)amino)phenyl)propan-1-one]	–	–	–	inactive	did not inhibit	–	no inhibition	no inhibition	no adduct formation
